# Test results reported in patent US12312324B2, “Fluorine-containing substituted benzothiophene compound, and pharmaceutical composition and application thereof” (Shanghai Institute of Materia Medica, Chinese Academy of …, priority 2019, dated 2025).
# Entries after “also recorded” stand apart in the source; their conditions may differ.
# Tests used:
# [1] = molecular target: human-derived interferon gene stimulating protein (Homo sapiens, UniProt Q86WV6, G230A/H232R/R293Q/R71H); assay: THP1-Blue-ISG reporter cell screening for activation of interferon gene stimulating protein and promotion of IFN-β expression; details: 10 μM, THP1-Blue-ISG cells; for Fold change (ratio relative to the control experiment), First experiment / Fold change (ratio relative to the control experiment), Second experiment / Fold change (ratio relative to the control experiment), Average value: 24 hours, OD650; for Fold change (ratio relative to the control experiment), Average value: average of two experiments
# human-derived interferon gene stimulating protein, sequence (Q86WV6 whole entry R71H/G230A/H232R/R293Q): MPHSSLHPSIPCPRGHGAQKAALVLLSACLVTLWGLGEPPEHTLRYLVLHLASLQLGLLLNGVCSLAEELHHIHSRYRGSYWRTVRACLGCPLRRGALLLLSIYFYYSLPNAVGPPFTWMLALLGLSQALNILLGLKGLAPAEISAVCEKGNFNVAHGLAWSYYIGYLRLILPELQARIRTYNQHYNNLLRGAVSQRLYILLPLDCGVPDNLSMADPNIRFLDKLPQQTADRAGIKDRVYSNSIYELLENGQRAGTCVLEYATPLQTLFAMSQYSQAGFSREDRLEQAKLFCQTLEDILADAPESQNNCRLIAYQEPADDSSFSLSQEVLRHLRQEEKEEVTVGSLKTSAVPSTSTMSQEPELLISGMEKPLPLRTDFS
# [2] = Pharmacokinetic properties in rats; format: in vivo
# [3] = rat, plasma, Intravenous (1 mg/kg)
"Fold change (ratio relative to the control experiment), First experiment [1]","Fold change (ratio relative to the control experiment), Second experiment [1]","Fold change (ratio relative to the control experiment), Average value [1]",Structure (SMILES),Judgement [1],further results
23.95,25.94,24.95,COc1cc2cc(C(F)(F)CCC(=O)O)sc2cc1OC [Compound S2],"effective (when the Fold change≥2, it is effective)","plasma exposure (AUC) of intravenous injection relative to that of 1a ([2]; intravenous injection, versus compound 1a): about 4.4 times; pharmacokinetic properties (T1/2, Cmax, AUC, MRT) compared with compound 1a (in words) ([2]; oral or intravenous, versus compound 1a): significantly superior; also recorded: significantly better; AUC [2, 3]: 7180 ng·h/mL; MRT [2, 3]: 51.2 min; clearance [2, 3]: 2.33 mL/min/kg; half-life [2, 3]: 40.1 min; AUC ([2]; rat, plasma, Oral (3 mg/kg)): 5820 ng·h/mL; Cmax ([2]; rat, plasma, Oral (3 mg/kg)): 6910 ng/mL; MRT ([2]; rat, plasma, Oral (3 mg/kg)): 69 min; half-life ([2]; rat, plasma, Oral (3 mg/kg)): 44.4 min"
24.31,33.69,29.00,COc1cc2cc(C(F)(F)CCC(=O)OC(C)C)sc2cc1OC [Compound S3],"effective (when the Fold change≥2, it is effective)",
15.82,26.22,21.02,COc1cc2cc(C(F)(F)CCC(=O)N(C)O)sc2cc1OC [Compound S6],"effective (when the Fold change≥2, it is effective)",
23.95,29.94,26.95,COc1cc2cc(C(F)(F)CCC(=O)N(O)C(F)F)sc2cc1OC [Compound S7],"effective (when the Fold change≥2, it is effective)",
25.41,34.36,29.89,COc1cc2cc(C(F)(F)CCC(=O)N(O)C(C)C)sc2cc1OC [Compound S10],"effective (when the Fold change≥2, it is effective)",
20.44,30.93,25.69,COc1cc2cc(C(F)(F)CCC(=O)N(O)Cc3ccccc3)sc2cc1OC [Compound S11],"effective (when the Fold change≥2, it is effective)",
22.38,31.54,26.96,COc1cc2cc(C(F)(F)CCC(=O)N(O)C(F)(F)c3ccccc3)sc2cc1OC [Compound S12],"effective (when the Fold change≥2, it is effective)",
26.23,35.12,30.68,COc1cc2cc(C(F)(F)CCC(=O)N(O)C3CC3)sc2cc1OC [Compound S15],"effective (when the Fold change≥2, it is effective)",
17.62,28.34,22.98,COc1cc2cc(C(F)(F)CCC(=O)NOc3ccccc3)sc2cc1OC [Compound S18],"effective (when the Fold change≥2, it is effective)",
25.73,31.81,28.77,COc1cc2sc(C(F)(F)CCC(=O)O)cc2c(F)c1OC [Compound S19],"effective (when the Fold change≥2, it is effective)",
27.51,32.63,30.07,CO/C1=C(\OC)C/C(F)=c2/cc(C(F)(F)CCC(=O)N(O)C(C)C)s/c2=C/C1 [Compound S21],"effective (when the Fold change≥2, it is effective)",
15.53,24.54,20.04,COC1=C(OC)CC=c2cc(C(F)CCCC(=O)N(O)C(C)C)sc2=C1 (stereo not shown) [Compound S24],"effective (when the Fold change≥2, it is effective)",
16.24,25.03,20.62,O=C(O)CCC(F)(F)c1cc2cc3c(cc2s1)OCO3 [Compound S26],"effective (when the Fold change≥2, it is effective)",
23.75,33.73,28.74,COc1cc2sc(C(F)(F)CCC(=O)O)cc2cc1Br [Compound S28],"effective (when the Fold change≥2, it is effective)",
25.26,34.05,29.66,C=Cc1cc2cc(C(F)(F)CCC(=O)O)sc2cc1OC [Compound S29],"effective (when the Fold change≥2, it is effective)",
